Patent publication US10232023B2, “Methods for treatment of and prophylaxis against inflammatory disorders” (THE UNIVERSITY OF UTAH RESEARCH FOUNDATION, priority 2013, dated 2019)
Entries after “also recorded” stand apart in the source; their conditions may differ.

Key:
[1] = test system: human PMNs (killing of a pathogenic strain of E. coli); test: Bacterial killing of E. coli by human PMNs; assay type: cell-based; settings: LPS-stimulated (100 ng/mL) PMNs; pretreatment 1 nM
Experimental: Total, phagocytotic, and NET-mediated extracellular bacterial killing of a pathogenic strain of E. coli by human PMNs±LPS stimulation (100 ng/mL) was assessed, and the results are summarized in FIG. 9. PMNs were also pretreated with CRISPP (1 nM), or a scrambled control peptide control (1 nM). Phagocytotic killing was inhibited with cytochalasin B and D pretreatment (10 μM). NET-mediated killing was inhibited using DNase treatment to dismantle NETs prior to addition of the bacteria.
Bacterial killing efficiency of primary human PMNs was determined as previously described in Yost et al., Blood, 2009, 113: 6419-6427. PMNs were incubated for 30 minutes at 37° C. in 5% CO2/95% air alone or with the phagocytosis inhibitors cytochalasin B and D (10 μM). The leukocytes were then stimulated with LPS (100 ng/mL), placed in poly-L-lysine-coated wells of a 24-well tissue culture plate, and incubated at 37° C. for 1 hour to induce cellular activation and formation of NETs. To inhibit NET-mediated bacterial killing, we incubated selected wells with DNase (40 U/mL) for 15 minutes prior to addition of bacteria. E. coli (1 cfu/100 PMN) were added to the PMNs, followed by continued incubation for 2 hours. The PMNs were then permeabilized with 0.1% Triton-X 100 for 10 minutes and each well was scraped to free all cells. Serial dilutions were performed and bacterial cultures were grown on 5% sheep blood agar plates (HARDY DIAGNOSTICS). After a 24-hour incubation, bacterial counts were determined. Total, phagocytotic, and fractional NET-mediated bacterial killing were determined as described above.

[2] = test system: Outbred Swiss-Webster mice, E. coli peritonitis; test: Murine E. coli peritonitis: peritoneal fluid and membrane analysis; assay type: in vivo, mouse
Experimental: Outbred Swiss-Webster mice were injected intraperitoneally with 4.5×10^7 colony-forming units (cfu) of E. coli±nNIF, CRISPP, or scrambled control peptide (SCR) (10 mg/kg, IP injection) one hour prior to E. coli infection. At the 3 hour time point after infection, 3 mice were sacrificed and the peritoneal fluid and peritoneal tissue were collected and analyzed for leukocyte accumulation, bacteriology, and in vivo NET formation. […] See Fuchs et al., J Cell Biol, 2007, 176: 231-241. The number of E. coli cfu/mL of peritoneal fluid in CRISPP pretreated mice was also determined compared to SCR mice (see FIG. 17C).
Animals were treated with CRISPP (10 mg/kg), nNIF (10 mg/kg), or SCR (10 mg/kg) by i.p. injection 1 hour prior to infection (E. coli, 4.5×10^7 cfu/mouse, i.p. injection) or stimulation (LPS, 25 mg/kg, i.p. injection (SIGMA)). Control mice were injected with saline alone. The mice were sacrificed in a CO2 chamber 3 hours post-infection/stimulation with the peritoneal contents harvested and analyzed. Briefly, the skin of the abdomen was cut open in the midline after thorough disinfection and without injuring the muscle. The peritoneal cavity was lavaged with sterile saline solution ([…]) and analyzed for in vivo NET formation, bacteriology, and leukocyte accumulation. NETs in the peritoneal fluid were qualitatively and quantitatively analyzed using live cell imaging with confocal microscopy and histone release assays. NETs on the inner surface of the peritoneal membrane were assessed quantitatively using live cell imaging followed by standardized grid analysis of 5 randomly selected high power visual fields per tissue sample (IMAGE-J software, NIH). Peritoneal bacterial colony forming units (cfu) counts were quantified by permeabilizing all recovered leukocytes with 0.1% Triton-X 100 for 10 minutes and performing serial dilutions and bacterial cultures on 5% sheep blood agar plates (HARDY DIAGNOSTICS). After a 24-hour incubation, bacterial counts were determined. Total leukocyte counts in the peritoneal lavage were determined in Neubauer chambers using an optical microscope after dilution in Turk's solution (2% acetic acid). Differential leukocyte analysis was performed using a 60× oil immersion objective to assess morphology of cyto-centrifuged cells stained with May-Grunwald-Giemsa dye.

[3] = test system: outbred Swiss mice, murine CL/P model; test: Survival in cecal ligation and puncture (CL/P) model; assay type: in vivo, mouse; settings: 10 mcg/kg IP, 1 hour prior and 6 hours after surgery, vs CL/P control, p=0.06
Experimental: FIG. 11 is a graph tracking survival of outbred Swiss mice in various treatment arms of a murine CL/P model. CRISPP treated mice (10 mcg/kg) received 2 doses intraperitoneally; one given 1 hour prior to surgery or sham surgery and one dose given 6 hours after surgery. The same dose, delivery route, and schedule were followed for the scrambled peptide control mice. Ten mice were assessed in each of the CL/P groups.
Survival of outbred Swiss mice was tracked in various treatment arms following intraperitoneal injection of either LPS (20 mg/kg) or E. coli (4×10^7 bacteria), as shown in FIGS. 10A and 10B. […] Six mice were assessed in both groups: LPS+CRISPP and LPS+scrambled control peptide. […] Ten mice were assessed in each group: no treatment, E. coli+CRISPP, and E. coli+scrambled control peptide. […] Referring to FIG. 11, CRISPP was also evaluated in a murine model of polymicrobial infection caused by cecal ligation and puncture (CL/P). […] Ten mice were assessed in each of the CL/P groups. […]
Animals were treated with CRISPP (10 mg/kg), nNIF (10 mg/kg), or SCR (10 mg/kg) by i.p. injection 1 hour prior to and 6 hours after infection (E. coli, 4.5×10^7 cfu/mouse, i.p. injection) or stimulation (LPS, 25 mg/kg, i.p. injection). […] Survival was assessed over 6 days at 6 hour to 12 hour intervals.

[4] = 10 mg/kg IP pretreatment, vs SCR control

Cancer-Associated SCM-Recognition, Immune Defense Suppression, and Serine Protease Protection Peptide [CRISPP, nNIF-related peptide (nNRP)]
NET-mediated extracellular bacterial killing of E. coli [1]: significantly decreased
Phagocytotic bacterial killing of E. coli [1]: did not alter; also recorded: not different
Total bacterial killing of E. coli [1]: significantly decreased
Peritoneal PMN accumulation ([2]; 10 mg/kg IP one hour prior to E. coli, 3 hours after infection, vs E. coli alone or SCR): significant increase
Peritoneal fluid bacterial concentration (E. coli cfu/mL) ([2]; 10 mg/kg IP one hour prior to E. coli, 3 hours after infection, vs SCR): significant increase
NET formation by histone H3 release assay of the peritoneal fluid [2, 4]: significant quantitative decrease
NET formation in the peritoneal fluid (live cell imaging) [2, 4]: qualitative decrease
Peritoneal membrane-associated NET formation ([2]; freshly resected peritoneal membrane, live cell imaging, standardized grid): qualitative and quantitative decrease
Survival [3]: approached statistical significance
